Test results from publication PMC9409043, “Serotonin 5-HT6 Receptor Ligands and Butyrylcholinesterase Inhibitors Displaying Antioxidant Activity—Design, Synthesis and Biological Evaluation of Multifunctional Agents against Alzheimer’s Disease” (International Journal of Molecular Sciences, 2022).
Where “and” joins values, the source holds several entries; their conditions need not be identical. Identical values can stand only once.

Key:
human 5-HT6 receptor = target: T1, human 5-HT6 receptor (Homo sapiens, UniProt P50406); experiment: 5-HT6 receptor radioligand binding assay ([3H]-LSD, CHO-K1 membranes)
T1 construct: purchased PerkinElmer; host or cells: CHO-K1 cells, stably transfected (membrane preparation)
Method: 5-HT6R binding affinity and cholinesterase (AChE/BuChE) inhibitory activity. We evaluated the pharmacological properties of the final compounds 12–19 in vitro according to the previously described, well-established protocols. Their affinities for recombinant human 5-HT6 receptors (h5-HT6R) were tested in a radioligand binding assay and the inhibitory potencies against human recombinant AChE (hAChE) and BuChE isolated from human plasma (hBuChE) in the spectrophotometric Ellman’s assay. […].
We prepared 10 mM of stock solutions of tested compounds in DMSO. Serial dilutions of compounds were prepared in a 96-well microplate in assay buffers using the automated pipetting system epMotion 5070 (Eppendorf). Each compound was tested in 8 concentrations from 10^−5 to 10^−12 M (final concentration).
The radioligand binding assay was performed using membranes from CHO-K1 cells stably transfected with the human 5-HT6 receptor (PerkinElmer) according to the previously described procedure. All assays were carried out in duplicates. We prepared 50 µL working solution of the tested compounds, 50 µL [^3H]-LSD (final concentration 2.5 nM) and 150 µL diluted membranes (15 µg protein per well) in assay buffer (50 mM Tris, pH 7.4, 10 mM MgCl2, 0.1 mM EDTA) and transferred them to polypropylene 96-well microplates using a 96-well pipetting station Rainin Liquidator (MettlerToledo). Methiothepin (10 μM) was used to define nonspecific binding. The microplate was covered with sealing tape, mixed and incubated for 60 min at 27 °C. The reaction was terminated by rapid filtration through GF/B filter mate presoaked with 0.5% polyethyleneimine for 30 min. Ten rapid washes with 200 µL 50 mM Tris buffer (4 °C, pH 7.4) were performed using the automated harvester system Harvester-96 MACH III FM (Tomtec). The filter mates were dried at 37 °C in a forced air fan incubator and then solid scintillator MeltiLex was melted on filter mates at 90 °C for 5 min. Radioactivity was counted in MicroBeta2 scintillation counter (PerkinElmer). Data were fitted to a one-site curve-fitting equation with Prism 6 (GraphPad Software) and Ki values were estimated from the Cheng−Prusoff equation.

[1] = ABTS free radical scavenging assay
From the text: Antioxidant activity. As mentioned before, oxidative stress is one of the components of AD pathomechanism and is characterised by an imbalance in the production of ROS. One of the mechanisms by which antioxidants reduce the concentration of ROS and therefore prevent or slow the cell damage caused by free radicals is scavenging them. Thus, we tested the scavenging ability of compounds 12–19 in the spectrophotometric ABTS assay that we used before. In this assay, the ability of compounds to scavenge ABTS^• radicals, which are generated from 2,2’-azino-bis(3-ethylbenzothiazoline-6-sulphonic acid) (ABTS), is measured. We tested the compounds at three concentrations: 30, 75 and 150 μM after 5, 30 and 60 min of incubation using Trolox, a water-soluble vitamin E analogue, as a reference (Table S1 in Supporting information).
The spectrophotometric ABTS assay was performed in 96-well microplates with the reagents purchased from Sigma-Aldrich (Steinheim, Germany) according to the previously described procedure. Stock solutions of the tested compounds (6.4 mM) and reagents were prepared in DMSO and water, respectively. 2,2′-Azino-bis(3-ethylbenzothiazoline-6-sulfonic acid) free radical (ABTS^•) was prepared by mixing the stock solution of ABTS (7 mM) and […] (2.45 mM) in ratio 1:1. The mixture was kept in the dark at 4 °C for 16 h. The obtained solution of (ABTS^•) was diluted with water 20 times. Then, the test compound or water or mixture of DMSO/water in the appropriate ratio (0.02 mL) was added to ABTS^• solution (0.18 mL). The three concentrations of the test compounds and Trolox were tested in triplicate: 0.15, 0.075 and 0.03 mM. Changes in absorbance were measured at 734 nm after 5, 30 and 60 min, using a microplate reader (SPECTROstar Nano; BMG Labtech, Ortenberg, Germany). Based on the equation ((A0 − A)/A0) × 100% (where A0 and A were the absorbances without and with the test compound, respectively) the percentage of free radical scavenging activity was calculated. The results are presented as mean ± SD.

[2] = target: T2, BuChE isolated from human plasma (hBuChE) (Homo sapiens, UniProt P06276); experiment: biochemical; assay type: biochemical; conditions: for IC50: mean ± SEM of at least three experiments
T2 construct: BuChE isolated from human plasma (hBuChE); tissue Vivonics (Bedford, MA, USA), donated; host or cells: human plasma
Method: (§1) 5-HT6R binding affinity and cholinesterase (AChE/BuChE) inhibitory activity. […] Their affinities for recombinant human 5-HT6 receptors (h5-HT6R) were tested in a radioligand binding assay and the inhibitory potencies against human recombinant AChE (hAChE) and BuChE isolated from human plasma (hBuChE) in the spectrophotometric Ellman’s assay.
(§2) The assay was based on spectrophotometric Ellman’s method and was performed in 96-well microplates with the reagents purchased from Sigma-Aldrich (Steinheim, Germany) according to the previously described procedure. hBuChE was kindly donated by Vivonics (Bedford, MA, USA). […] After 5 minutes of the enzymatic reaction, the changes in absorbance were measured at 412 nm, using a microplate reader (SPECTROstar Nano; BMG Labtech, Ortenberg, Germany). First, compounds were tested at the screening concentration of 10 µM. Based on the equation 100 − (S/B) × 100 (where S and B were the respective enzyme activities with and without the test sample, respectively) the percentage inhibition of each enzyme for each compound was calculated. […] The IC50 values were calculated using nonlinear regression (GraphPad Prism 5; GraphPad Software, San Diego, CA, USA) by plotting the residual enzyme activities against the applied inhibitor concentration. […] All experiments were performed in triplicate.

[3] = target: T3, human recombinant AChE (hAChE) (Homo sapiens, UniProt P22303); experiment: biochemical; conditions: mean ± SEM of at least three experiments
T3 construct: purchased Sigma-Aldrich (Steinheim, Germany)
Method: as §1, §2

T3 sequence (P22303 32-614): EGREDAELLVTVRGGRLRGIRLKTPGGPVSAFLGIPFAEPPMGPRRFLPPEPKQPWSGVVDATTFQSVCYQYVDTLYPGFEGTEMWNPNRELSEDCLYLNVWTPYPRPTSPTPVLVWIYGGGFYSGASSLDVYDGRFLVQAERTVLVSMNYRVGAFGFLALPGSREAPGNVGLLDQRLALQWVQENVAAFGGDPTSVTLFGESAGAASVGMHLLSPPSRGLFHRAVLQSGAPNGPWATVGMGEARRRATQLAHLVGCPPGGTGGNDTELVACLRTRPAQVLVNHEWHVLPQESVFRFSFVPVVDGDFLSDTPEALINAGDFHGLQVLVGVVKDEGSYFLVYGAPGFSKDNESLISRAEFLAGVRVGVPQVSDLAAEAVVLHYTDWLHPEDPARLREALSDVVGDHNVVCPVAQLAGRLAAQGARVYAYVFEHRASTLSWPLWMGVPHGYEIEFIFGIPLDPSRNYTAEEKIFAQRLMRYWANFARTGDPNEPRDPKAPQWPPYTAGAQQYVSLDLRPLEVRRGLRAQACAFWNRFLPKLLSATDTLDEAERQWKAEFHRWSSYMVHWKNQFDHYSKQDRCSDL
T1 sequence (P50406 whole entry): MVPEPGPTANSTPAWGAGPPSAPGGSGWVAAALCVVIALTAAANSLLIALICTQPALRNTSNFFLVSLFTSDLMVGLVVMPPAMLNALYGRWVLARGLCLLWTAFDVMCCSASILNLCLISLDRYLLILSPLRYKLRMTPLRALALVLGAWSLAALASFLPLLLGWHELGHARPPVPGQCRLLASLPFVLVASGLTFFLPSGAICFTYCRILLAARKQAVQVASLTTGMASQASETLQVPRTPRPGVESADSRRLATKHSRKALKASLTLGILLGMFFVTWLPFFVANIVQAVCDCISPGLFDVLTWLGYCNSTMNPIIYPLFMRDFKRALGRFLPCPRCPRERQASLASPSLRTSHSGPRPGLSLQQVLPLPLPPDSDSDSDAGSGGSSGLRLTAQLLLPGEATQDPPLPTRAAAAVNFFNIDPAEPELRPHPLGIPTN
T2 sequence (P06276 29-602): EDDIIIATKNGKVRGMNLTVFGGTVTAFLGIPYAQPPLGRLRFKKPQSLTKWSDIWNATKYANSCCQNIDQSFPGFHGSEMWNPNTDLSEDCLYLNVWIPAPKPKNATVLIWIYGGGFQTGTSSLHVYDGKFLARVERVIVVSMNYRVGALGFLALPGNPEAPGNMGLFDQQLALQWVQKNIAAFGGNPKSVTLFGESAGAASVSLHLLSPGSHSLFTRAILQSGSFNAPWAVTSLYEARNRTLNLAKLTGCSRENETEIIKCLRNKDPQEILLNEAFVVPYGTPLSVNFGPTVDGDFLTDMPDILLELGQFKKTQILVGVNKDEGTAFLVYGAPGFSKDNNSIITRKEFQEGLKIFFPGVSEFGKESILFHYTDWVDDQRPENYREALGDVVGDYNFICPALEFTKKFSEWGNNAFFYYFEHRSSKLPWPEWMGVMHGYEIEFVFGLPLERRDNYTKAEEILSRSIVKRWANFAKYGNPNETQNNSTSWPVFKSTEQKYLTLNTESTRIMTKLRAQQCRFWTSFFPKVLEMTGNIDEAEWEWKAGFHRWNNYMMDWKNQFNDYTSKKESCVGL

Structure (SMILES) | Ki (human 5-HT6 receptor) [nM] | % of ABTS• reduction ± SD ([1]; 30 µM, 5 min) [%] | % of ABTS• reduction ± SD ([1]; 30 µM, 30 min) [%] | % of ABTS• reduction ± SD ([1]; 30 µM, 60 min) [%] | % of ABTS• reduction ± SD ([1]; 75 µM, 5 min) [%] | % of ABTS• reduction ± SD ([1]; 75 µM, 30 min) [%] | % of ABTS• reduction ± SD ([1]; 75 µM, 60 min) [%] | % of ABTS• reduction ± SD ([1]; 150 µM, 5 min) [%] | % of ABTS• reduction ± SD ([1]; 150 µM, 30 min) [%] | % of ABTS• reduction ± SD ([1]; 150 µM, 60 min) | IC50 [2] [nM] | IC50 [3] [nM] | fold higher potency against hBuChE than hAChE ([2]; hAChE IC50 vs. hBuChE IC50) [fold]
O=S(=O)(c1ccccc1)N1CCc2c(OCCNCC3CCN(Cc4ccccc4)CC3)cccc21 [Compound 15, N-((1-Benzylpiperidin-4-yl)methyl)-2-((1-(phenylsulfonyl)indolin-4-yl)oxy)ethan-1-amine] | 267 ± 9 | 10±0 | 10±1 | 11±0 | 11±1 | 13±1 | 15±1 | 19±1 | 29±1 | 36±4% | 5410 ± 100 | 8210 ± 225 | –
O=S(=O)(c1ccccc1)n1ccc2c(OCCNCCCC3CCN(Cc4ccccc4)CC3)cccc21 [Compound 14, 3-(1-Benzylpiperidin-4-yl)-N-(2-((1-(phenylsulfonyl)-1H-indol-4-yl)oxy)ethyl)propan-1-amine] | 22 ± 2 | 5±3 | 5±3 | 6±3 | 13±1 | 18±0 | 21±0 | 20±0 | 29±0 | 35±0% and 35% | 16 ± 1 | 930 ± 35 | 60
O=c1[nH]c2c(OCCNCCC3CCN(Cc4ccccc4)CC3)cccc2n1Cc1ccccc1 [Compound 18, 1-Benzyl-4-(2-((2-(1-benzylpiperidin-4-yl)ethyl)amino)ethoxy)-1,3-dihydro-2H-benzo[d]imidazol-2-one] | 142 ± 20 | 10±1 | 23±1 | 27±1 | 11±1 | 31±1 | 36±2 | 13±0 | 33±0 | 40±0% | 1160 ± 24 | 2860 ± 68 | –
